# Several values for one entry are separate records, joined by “and”; a condition that tells them apart may be missing. Equal entries are not always repeated. Where two headings read alike, the source gives them in different places.
# Test: Tissue distribution of SHR9146 in mice after oral gavage of 40 mg/kg
# Assay type: in vivo, ICR mice
# Details: 40 mg/kg, 40 mg/kg oral gavage; for concentration at 1 h / concentration at 3 h / concentration at 6 h / concentration at 24 h: female, ICR, mouse, po
# Experimental: ICR mice with body weight 16–26 g were supplied by Shanghai Lingchang Biotechnology Co., Ltd. (animal breeding license number SCXK (Shanghai) 2013-0018) and housed at Shanghai Institute of Materia Medica, Chinese Academy of Sciences [animal use license number SYXK (Shanghai) 2015-0027]. The mice used in this study were fasted overnight for 12 h but had free access to water. Food was supplied 4 h post-dose. All experiments in this study were conducted in accordance with the Guidelines for the Care and Use of Laboratory Animals of Shanghai Institute of Materia Medica, Chinese Academy of Sciences.
# Another set of 30 mice were randomly assigned into five groups with equal numbers, males and females, for tissue distribution study with oral gavage at a single dose of 40 mg/kg at predetermined different time points: pre-dose and post dose at 1, 3, 6, and 24 h, respectively. The whole brain, heart, liver, spleen, lung, kidney, bladder, pancreas, testis, ovary, uterus, stomach, small intestine, adrenal gland, skin, skeletal muscle, thyroid gland, and abdominal fat tissues as well as the whole blood and plasma samples were harvested. Tissue samples were washed with 0.9% sodium chloride solution to remove the residual blood or contents, blotted on a filter paper, and stored at −70°C prior to the analysis.
# Protein precipitation was selected for the pretreatment of both the plasma and the tissue homogenate prepared after thawing at room temperature, cut into pieces, and homogenized with a quintuple methanol–water mixture (1:1, v/v) for each tissue sample.
# Briefly as follows, an aliquot of 25-μL plasma or tissue homogenate was spiked with 100 μL of internal standard solution (1 μg/mL for plasma, 0.2 μg/mL for tissue homogenate) and 300 μL of methanol added and vortex mixed for 60 s. The mixture was then centrifuged at 14,000 rpm at 4°C for 5.0 min, and the supernatant was diluted with methanol–water (4:1, v/v) in a ratio of 1:9 for the plasma or 1:1 for the tissue homogenate, and 5 μL of the resulting solution was injected for the LC-MS/MS analysis.
# After oral administration of 40 mg/kg SHR9146, samples in different tissues at predetermined time points (pre-drug administration, post-drug administration at 1, 3, 6, and 24 h) were collected and prepared for the analysis. The drug concentrations of SHR9146 (μg/g or μg/mL) were determined for each mouse, and the mean and standard deviation were further obtained (Table S7).
# [1] = kidney, Mean (n=3), read-out: SHR9146 concentration in Kidney
# [2] = liver, Mean (n=3), read-out: SHR9146 concentration in Liver
# [3] = lung, Mean (n=3), read-out: SHR9146 concentration in Lung
# [4] = ovary, Mean (n=3), read-out: SHR9146 concentration in Ovary
# [5] = pancreas, Mean (n=3), read-out: SHR9146 concentration in Pancreas
# [6] = plasma, Mean (n=3), read-out: SHR9146 concentration in Plasma
# [7] = skeletal muscle, Mean (n=3), read-out: SHR9146 concentration in Skeletal muscle
# [8] = skin, Mean (n=3), read-out: SHR9146 concentration in Skin
# [9] = small intestine, Mean (n=3), read-out: SHR9146 concentration in Small intestine
# [10] = spleen, Mean (n=3), read-out: SHR9146 concentration in Spleen
# [11] = stomach, Mean (n=3), read-out: SHR9146 concentration in Stomach
# [12] = stomach, individual mice, read-out: SHR9146 concentration in Stomach
# [13] = thyroid gland, Mean (n=3), read-out: SHR9146 concentration in thyroid gland
# [14] = uterus, Mean (n=3), read-out: SHR9146 concentration in Uterus
# [15] = whole blood, Mean (n=3), read-out: SHR9146 concentration in Whole blood
smiles,measurement,setting,value
OCCn1cc(-c2ccc(N3CCC([C@H]4c5c(F)cccc5-c5cncn54)CC3)cc2)cn1 [SHR9146],concentration at 1 h,"kidney, 1 h, individual mice, read-out: SHR9146 concentration in Kidney",13100 ng/g
same,concentration at 3 h,[1],12700 ng/g
same,concentration at 6 h,[1],1430 ng/g
same,concentration at 1 h,"liver, 1 h, Mean (n=3), read-out: SHR9146 concentration in Liver",24300 ng/g
same,concentration at 1 h,"liver, 1 h, individual mice, read-out: SHR9146 concentration in Liver",22800 ng/g
same,concentration at 3 h,[2],19800 ng/g
same,concentration at 6 h,[2],1950 ng/g
same,concentration at 24 h,[2],37 ng/g
same,concentration at 24 h,"liver, individual mice, read-out: SHR9146 concentration in Liver",54 ng/g
same,concentration at 1 h,"lung, 1 h, Mean (n=3), read-out: SHR9146 concentration in Lung",16300 ng/g
same,concentration at 1 h,"lung, 1 h, individual mice, read-out: SHR9146 concentration in Lung",13600 ng/g
same,concentration at 3 h,[3],25800 ng/g
same,concentration at 6 h,[3],1380 ng/g
same,concentration at 24 h,[3],165 ng/g
same,concentration at 24 h,"lung, individual mice, read-out: SHR9146 concentration in Lung",154 ng/g
same,concentration at 1 h,"ovary, 1 h, Mean (n=3), read-out: SHR9146 concentration in Ovary",18300 ng/g
same,concentration at 1 h,"ovary, 1 h, individual mice, read-out: SHR9146 concentration in Ovary",17000 ng/g
same,concentration at 3 h,[4],12700 ng/g
same,concentration at 6 h,[4],704 ng/g
same,concentration at 1 h,"pancreas, 1 h, Mean (n=3), read-out: SHR9146 concentration in Pancreas",18000 ng/g
same,concentration at 1 h,"pancreas, 1 h, individual mice, read-out: SHR9146 concentration in Pancreas",15900 ng/g
same,concentration at 3 h,[5],12500 ng/g
same,concentration at 6 h,[5],638 ng/g
same,concentration at 1 h,"plasma, 1 h, Mean (n=3), read-out: SHR9146 concentration in Plasma",13.1 µg/mL
same,concentration at 1 h,"plasma, 1 h, individual mice, read-out: SHR9146 concentration in Plasma",11.8 µg/mL
same,concentration at 3 h,[6],9.07 µg/mL
same,concentration at 6 h,[6],0.471 µg/mL
same,concentration at 1 h,"skeletal muscle, 1 h, Mean (n=3), read-out: SHR9146 concentration in Skeletal muscle",7800 ng/g
same,concentration at 1 h,"skeletal muscle, 1 h, individual mice, read-out: SHR9146 concentration in Skeletal muscle",6440 ng/g
same,concentration at 3 h,[7],5910 ng/g
same,concentration at 6 h,[7],294 ng/g
same,concentration at 1 h,"skin, 1 h, Mean (n=3), read-out: SHR9146 concentration in Skin",11100 ng/g
same,concentration at 1 h,"skin, 1 h, individual mice, read-out: SHR9146 concentration in Skin",9600 ng/g
same,concentration at 3 h,[8],7700 ng/g
same,concentration at 6 h,[8],498 ng/g
same,concentration at 1 h,"small intestine, 1 h, Mean (n=3), read-out: SHR9146 concentration in Small intestine",21600 ng/g
same,concentration at 1 h,"small intestine, 1 h, individual mice, read-out: SHR9146 concentration in Small intestine",19000 ng/g
same,concentration at 3 h,[9],16400 ng/g
same,concentration at 3 h,"small intestine, individual mice, read-out: SHR9146 concentration in Small intestine",14600 ng/g
same,concentration at 6 h,[9],832 ng/g
same,concentration at 1 h,"spleen, 1 h, Mean (n=3), read-out: SHR9146 concentration in Spleen",6700 ng/g
same,concentration at 1 h,"spleen, 1 h, individual mice, read-out: SHR9146 concentration in Spleen",6190 ng/g
same,concentration at 3 h,[10],4740 ng/g
same,concentration at 6 h,[10],241 ng/g
same,concentration at 1 h,"stomach, 1 h, Mean (n=3), read-out: SHR9146 concentration in Stomach",27800 ng/g
same,concentration at 1 h,"stomach, 1 h, individual mice, read-out: SHR9146 concentration in Stomach",27400 ng/g
same,concentration at 3 h,[11],27200 ng/g
same,concentration at 3 h,[12],29000 ng/g
same,concentration at 6 h,[11],3870 ng/g
same,concentration at 24 h,[11],848 ng/g
same,concentration at 24 h,[12],782 ng/g
same,concentration at 1 h,"thyroid gland, 1 h, Mean (n=3), read-out: SHR9146 concentration in thyroid gland",9550 ng/g
same,concentration at 1 h,"thyroid gland, 1 h, individual mice, read-out: SHR9146 concentration in thyroid gland",8340 ng/g
same,concentration at 3 h,[13],6940 ng/g
same,concentration at 6 h,[13],378 ng/g
same,concentration at 1 h,"uterus, 1 h, Mean (n=3), read-out: SHR9146 concentration in Uterus",10700 ng/g
same,concentration at 1 h,"uterus, 1 h, individual mice, read-out: SHR9146 concentration in Uterus",9740 ng/g
same,concentration at 3 h,[14],6040 ng/g
same,concentration at 6 h,[14],363 ng/g
same,concentration at 1 h,"whole blood, 1 h, Mean (n=3), read-out: SHR9146 concentration in Whole blood",8.66 µg/mL
same,concentration at 1 h,"whole blood, 1 h, individual mice, read-out: SHR9146 concentration in Whole blood",7.36 µg/mL
same,concentration at 3 h,[15],6.19 µg/mL
same,concentration at 6 h,[15],0.298 µg/mL
same,SHR9146 concentration in Bladder,"male, 1 h, individual mice",13.766 µg/g and 11.095 µg/g
same,SHR9146 concentration in Kidney,"male, 1 h, individual mice",15.501 µg/g and 7.908 µg/g
same,SHR9146 concentration in Liver,"male, 1 h, individual mice",23.893 µg/g and 14.099 µg/g
same,SHR9146 concentration in Lung,"male, 1 h, individual mice",16.090 µg/g and 8.210 µg/g

# Reference: PMC10410440, “Preclinical PK investigation of a novel IDO1/TDO dual inhibitor—SHR9146 in mouse plasma and tissues by LC-MS/MS” (Frontiers in Oncology, 2023)
